# Test system: 299254-011-R-J1-PDC complex spheroid viability
# Assay: Anticancer human tumor 299254-011-R-J1-PDC patient-derived melanoma cell line growth inhibition [POLQ]
# Details: for IC50: curve of first compound; for viability, T/C: stronger effect = lower value
# How it was run: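 Patient-derived tumour cells were co-cultured with HUVEC and mesenchymal stem cells as multicellular spheroids at 37 °C. They were treated with POLQ inhibitors (novobiocin, ART-558, RP6685) alone or combined with other agents. Top concentrations were at or near clinical Cmax (otherwise 10 microM; SN-38 at 1 microM), decreasing in half-log steps.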
# [1] = second compound 0.0316 µM, first compound 0.0316 µM
# [2] = second compound 0.0316 µM, first compound 0.1 µM
# [3] = second compound 0.0316 µM, first compound 0.316 µM
# [4] = second compound 0.0316 µM, first compound 1 µM
# [5] = second compound 0.0316 µM, first compound 3.16 µM
# [6] = second compound 0.0316 µM, first compound 10 µM
# [7] = second compound 0.1 µM, first compound 0.0316 µM
# [8] = second compound 0.1 µM, first compound 0.1 µM
# [9] = second compound 0.1 µM, first compound 0.316 µM
# [10] = second compound 0.1 µM, first compound 1 µM
# [11] = second compound 0.1 µM, first compound 3.16 µM
# [12] = second compound 0.1 µM, first compound 10 µM
# [13] = second compound 0.316 µM, first compound 0.0316 µM
# [14] = second compound 0.316 µM, first compound 0.1 µM
# [15] = second compound 0.316 µM, first compound 0.316 µM
# [16] = second compound 0.316 µM, first compound 1 µM
# [17] = second compound 0.316 µM, first compound 3.16 µM
# [18] = second compound 0.316 µM, first compound 10 µM
# [19] = second compound 1 µM, first compound 0.0316 µM
# [20] = second compound 1 µM, first compound 0.1 µM
# [21] = second compound 1 µM, first compound 0.316 µM
# [22] = second compound 1 µM, first compound 1 µM
# [23] = second compound 1 µM, first compound 3.16 µM
# [24] = second compound 1 µM, first compound 10 µM
# [25] = second compound 3.16 µM, first compound 0.0316 µM
# [26] = second compound 3.16 µM, first compound 0.1 µM
# [27] = second compound 3.16 µM, first compound 0.316 µM
# [28] = second compound 3.16 µM, first compound 1 µM
# [29] = second compound 3.16 µM, first compound 3.16 µM
# [30] = second compound 3.16 µM, first compound 10 µM
# [31] = second compound 10 µM, first compound 0.0316 µM
# [32] = second compound 10 µM, first compound 0.1 µM
# [33] = second compound 10 µM, first compound 0.316 µM
# [34] = second compound 10 µM, first compound 1 µM
# [35] = second compound 10 µM, first compound 3.16 µM
# [36] = second compound 10 µM, first compound 10 µM
# 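Further: spheroids exposed to drugs for one week before measurement.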
# 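Wherever viability, T/C is given: percent viability relative to DMSO vehicle control taken as 100%.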
smiles,measurement,setting,value
COc1cc2cc(C(=O)CCC(=O)O)sc2cc1OC + COC1C(OC(N)=O)C(O)C(Oc2ccc3c(O)c(NC(=O)c4ccc(O)c(CC=C(C)C)c4)c(=O)oc3c2C)OC1(C)C,IC50,second compound 0.0316 µM,> 10 µM
same,IC50,second compound 0.1 µM,> 10 µM
same,IC50,second compound 0.316 µM,> 10 µM
same,IC50,second compound 1 µM,> 10 µM
same,IC50,second compound 3.16 µM,> 10 µM
same,IC50,second compound 10 µM,> 10 µM
same,"viability, T/C",[1],112%
same,"viability, T/C",[2],98.3%
same,"viability, T/C",[3],106%
same,"viability, T/C",[4],100%
same,"viability, T/C",[5],113%
same,"viability, T/C",[6],102%
same,"viability, T/C",[7],95.8%
same,"viability, T/C",[8],109%
same,"viability, T/C",[9],101%
same,"viability, T/C",[10],116%
same,"viability, T/C",[11],99.2%
same,"viability, T/C",[12],114%
same,"viability, T/C",[13],112%
same,"viability, T/C",[14],93.1%
same,"viability, T/C",[15],104%
same,"viability, T/C",[16],110%
same,"viability, T/C",[17],113%
same,"viability, T/C",[18],109%
same,"viability, T/C",[19],91.8%
same,"viability, T/C",[20],104%
same,"viability, T/C",[21],104%
same,"viability, T/C",[22],109%
same,"viability, T/C",[23],104%
same,"viability, T/C",[24],125%
same,"viability, T/C",[25],108%
same,"viability, T/C",[26],96%
same,"viability, T/C",[27],94%
same,"viability, T/C",[28],110%
same,"viability, T/C",[29],112%
same,"viability, T/C",[30],108%
same,"viability, T/C",[31],103%
same,"viability, T/C",[32],104%
same,"viability, T/C",[33],95%
same,"viability, T/C",[34],107%
same,"viability, T/C",[35],110%
same,"viability, T/C",[36],97.5%
COc1ccc([C@@H](O)c2cc(-c3ncnc4cc(N5CCOCC5)ccc34)c(F)cc2Cl)nn1 + COC1C(OC(N)=O)C(O)C(Oc2ccc3c(O)c(NC(=O)c4ccc(O)c(CC=C(C)C)c4)c(=O)oc3c2C)OC1(C)C,IC50,second compound 0.0316 µM,9.66 µM
same,IC50,second compound 0.1 µM,8.91 µM
same,IC50,second compound 0.316 µM,8.8 µM
same,IC50,second compound 1 µM,> 10 µM
same,IC50,second compound 3.16 µM,> 10 µM
same,IC50,second compound 10 µM,8.74 µM
same,"viability, T/C",[1],103%
same,"viability, T/C",[2],90.6%
same,"viability, T/C",[3],97.7%
same,"viability, T/C",[4],109%
same,"viability, T/C",[5],102%
same,"viability, T/C",[6],48.3%
same,"viability, T/C",[7],115%
same,"viability, T/C",[8],109%
same,"viability, T/C",[9],114%
same,"viability, T/C",[10],99%
same,"viability, T/C",[11],89.8%
same,"viability, T/C",[12],45.4%
same,"viability, T/C",[13],116%
same,"viability, T/C",[14],125%
same,"viability, T/C",[15],118%
same,"viability, T/C",[16],106%
same,"viability, T/C",[17],86.7%
same,"viability, T/C",[18],45.4%
same,"viability, T/C",[19],118%
same,"viability, T/C",[20],107%
same,"viability, T/C",[21],101%
same,"viability, T/C",[22],110%
same,"viability, T/C",[23],90.6%
same,"viability, T/C",[24],54.5%
same,"viability, T/C",[25],128%
same,"viability, T/C",[26],96.3%
same,"viability, T/C",[27],109%
same,"viability, T/C",[28],103%
same,"viability, T/C",[29],85.1%
same,"viability, T/C",[30],51.1%
same,"viability, T/C",[31],107%
same,"viability, T/C",[32],107%
same,"viability, T/C",[33],105%
same,"viability, T/C",[34],87.1%
same,"viability, T/C",[35],92.9%
same,"viability, T/C",[36],44%
